Experimental data as given in PMC6372683, “Mechanism of the natural product moracin-O derived MO-460 and its targeting protein hnRNPA2B1 on HIF-1α inhibition” (Experimental & Molecular Medicine, 2019).

Assays:
HIF-1α = HIF-1α accumulation under real hypoxia (1% oxygen), western blotting and immunostaining; assay type: cell-based, human; conditions: 24 h
Description: For immunofluorescence observation, Hep3B cells were seeded on microplates at 2 or 5 × 10^4 cells/mL and cultured for 18 h. […] The medium in the microplate wells was then removed and cells were fixed with 3.7% formaldehyde in PBS for 15 min then permeabilized for 5 min with 100% cold MeOH. Cells were washed with PBS containing 1% bovine serum albumin (PBS-1% BSA), and then treated with 5% bovine serum albumin for 20 min. The cells in each well were treated with HIF-1α antibody in PBS-0.1% BSA then placed in a humidified atmosphere of 5% CO2 at 37 °C and incubated for 60 min. After being washed with PBS-0.1% BSA, treated wells of HIF-1α were incubated with Alexa Fluor 488-conjugated mouse anti-IgG antibody in PBS-0.1% BSA then incubated at room temperature for 60 min. After being washed with PBS-0.1% BSA, the dish wells were overlaid with Hoechst 33342 for 5 min at room temperature and then washed with PBS-0.1% BSA. Fluorescence was photographed with an inverted ECLIPSE Ti-U microscope (Nikon Corporation, Japan).

[1] = target: T1, hnRNPA2B1 domain-based constructs fused to GFP (Homo sapiens, UniProt P22626); test: Pull-down assay with GFP-fused domain constructs of hnRNPA2B1; assay type: binding
T1 construct: expressed in transfected cells

[2] = test system: hnRNPA2B1 domain-based constructs fused to GFP; test: as above; assay type: binding, human; conditions: GFP-fused N-terminal RNA recognition motifs
[3] = target: T2, hnRNPA2B1 GRD (202–353 aa) (Homo sapiens, UniProt P22626); test: BLItz association-dissociation binding assay, GRD of hnRNPA2B1; conditions: 6XHis tagged protein, Con. 5 uM, biotin-MO-460 on streptavidin tip
T2 construct: 202–353 aa; His; made in house; host or cells: bacteria (pET28A vector)
Description: (§1) The binding capacity of hnRNPA2B1 to Biotin-MO-460 was also analyzed using a BLItz™ (Fortebio, Inc., CA, US) instrument with a streptavidin-coated biosensor tip (Pall, USA). The streptavidin-coated tips were pre-wetted for 10 min in an incubation buffer (10 mM HEPES pH 7.4, 1% BSA and 0.05% Tween 20). The streptavidin-coated tips were immobilized with 1 μM Biotin-MO-460 in incubation buffer (10 mM HEPES pH 7.4, 1% BSA and 0.05% Tween 20) for 5 min. […] The concentrations were then incubated with HEPES for another 3 min to desorb the protein. Analysis of the accurate and precise kinetic constants was performed by the BLItz data analysis software (BLItz Pro 1.1).

hnRNPA2B1 RRM (1–193 aa) = target: T3, hnRNPA2B1 RRM (1–193 aa) (Homo sapiens, UniProt P22626); test: BLItz association-dissociation binding assay, RRM of hnRNPA2B1; conditions: 6XHis tagged protein, biotin-MO-460 on streptavidin tip
T3 construct: 1–193 aa; His; made in house; host or cells: bacteria (pET28A vector)
Description: as §1

[4] = target: T4, full-length hnRNPA2B1 (1–353 aa) (Homo sapiens, UniProt P22626); test: BLItz association-dissociation binding assay, full-length hnRNPA2B1; conditions: 6XHis tagged protein, Con. 5 uM, biotin-MO-460 on streptavidin tip
T4 construct: 1–353 aa; His; made in house; host or cells: bacteria (pET28A vector)
Description: as §1

T4 sequence (P22626 whole entry, the tested form may be a part): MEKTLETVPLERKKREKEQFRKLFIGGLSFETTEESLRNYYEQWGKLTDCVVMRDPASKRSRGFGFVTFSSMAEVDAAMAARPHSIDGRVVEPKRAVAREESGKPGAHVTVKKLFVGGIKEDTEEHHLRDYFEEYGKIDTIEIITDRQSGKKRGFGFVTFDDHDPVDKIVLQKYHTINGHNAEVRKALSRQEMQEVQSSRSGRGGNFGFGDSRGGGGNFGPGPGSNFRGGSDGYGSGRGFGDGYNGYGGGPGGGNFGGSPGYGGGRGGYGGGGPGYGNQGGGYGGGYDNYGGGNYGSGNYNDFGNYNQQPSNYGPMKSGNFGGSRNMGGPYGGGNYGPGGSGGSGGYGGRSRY
T2 sequence (P22626 202-353): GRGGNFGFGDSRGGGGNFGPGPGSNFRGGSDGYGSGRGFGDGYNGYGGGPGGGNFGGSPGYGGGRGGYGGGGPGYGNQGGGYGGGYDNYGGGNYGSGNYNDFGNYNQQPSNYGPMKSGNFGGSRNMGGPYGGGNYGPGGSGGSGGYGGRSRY
T3 sequence (P22626 1-193): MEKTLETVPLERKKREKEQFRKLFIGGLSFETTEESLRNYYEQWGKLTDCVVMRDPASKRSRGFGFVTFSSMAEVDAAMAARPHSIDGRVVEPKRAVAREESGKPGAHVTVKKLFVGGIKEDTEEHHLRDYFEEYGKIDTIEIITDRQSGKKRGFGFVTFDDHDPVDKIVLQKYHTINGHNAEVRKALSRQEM

Row | Compound | HIF-1α accumulation (HIF-1α) | binding of C-terminal glycine-rich domain (GRD) in pull-down ([1]; GFP-fused GRD) | binding of full-length hnRNPA2B1 in pull-down ([1]; GFP-fused full-length hnRNPA2B1) | binding of RRM1, RRM2 and RRM1-RRM2 in pull-down [2] | Kd [3] [µM] | melting point | Kd (hnRNPA2B1 RRM (1–193 aa)) | Kd [4] [µM]
1 | CC(C)(O)[C@H]1Cc2cc3cc(-c4cc(O)cc(O)c4)oc3cc2O1 [(R)-(-)-moracin O, (R)-(-)-moracin-O, reference compound] | reduction in HIF-1α accumulation | – | – | – | – | – | – | –
2 | CC(C)(O)[C@H]1Cc2cc3cc(-c4ccc(OCC(=O)NCCOCCOCCNC(=O)CCCC[C@@H]5SC[C@@H]6NC(=O)N[C@@H]65)cc4)oc3cc2O1 [biotin-MO-460, (R)-5-(2-Oxo-hexahydro-thieno[3,4-d]-imidazol-4-yl)-pentanoic acid-(2-{2-[2-(2-{4-[6-(1-hydroxy-1-methyl-ethyl)-5,6-dihydro-benzo[1,2-b;5,4-b']difuran-2-yl]-phenoxy}-acetyl-amino)-ethoxy]-ethoxy}-ethyl)-amide] | – | strongly bound | strongly bound | did not bind | 6.6 | 165.1 to 168.2 °C (dec.) | no specific interactions | 11.4
